“Also recorded” adds a separate entry of the source.
Legend:
[1] = system: Mouse cerebellar brain slices; assay: Myelination in lysolecithin-demyelinated brain slices (ex vivo); assay type: cell-based; conditions: 1 μM, 10 days
Procedure: Mouse cerebellar brain slices (350 μm) were made from the cerebellum of p10 C57bl6 pups. After 4 days in culture, slices were demyelinated using 0.5 mg/ml lysolecithin (18 h) and subsequently treated for 10 days with 1 μM RICE (in 0.1% DMSO) (FIG. 2).

[2] = system: Primary mouse oligodendrocyte precursor cells (OPCs); assay: OPC differentiation (in vitro), O4 and MBP staining; assay type: cell-based; conditions: for OPC differentiation towards oligodendrocytes: nanomolar ranges
Procedure: Primary mouse oligodendrocyte precursor cells (OPCs) were isolated from p0 C57bl6 pups using the shake off method at day 0 (FIG. 1). […] Primary OPCs (150,000 cells/condition) were cultured and stimulated with vehicle (0.1% DMSO) or different concentration of RICE (3 nM, 10 nM, 30 nM, 100 nM, 300 nM, 1000 nM) in 0.1% DMSO. Treatment was repeated on day 2 and day 4, applying a 40% medium change. Cells were fixated at day 6 and stained for O4, a late OPC marker, and MBP, an oligodendrocyte marker. […] The increased expression of O4 declined from 100 nM RICE onwards.

[3] = system: young adult C57BL/6J-OlaHsd mice; assay: Object location task (OLT), 24h intertrial interval; assay type: in vivo, mouse
Procedure: Mice received a subcutaneous injection with vehicle (0.1% DMSO in 2% Tween80 and 0.5% methylcellulose), roflumilast 0.03 mg/kg as a positive control, or RICE01 (0.00003 mg/kg-0.3 mg/kg) 3h after the first learning trial of the 24h interval OLT.

[4] = system: Male wild type C57bl6 mice fed cuprizone; assay: Visual evoked potentials after cuprizone diet (in vivo); set-up: species or system mouse; conditions: 0.1 mg/kg or 0.3 mg/kg subcutaneous twice a day, remyelination phase, compared to vehicle
Procedure: Male wild type C57bl6 mice were fed regular chow (n=6) or 0.3% (w/w)cuprizone (n=21) for 6 weeks to […]. Afterwards, cuprizone was removed and recovery was allowed. Two days before ceasing the cuprizone diet, until the end of the experiment, animals received twice a day subcutaneous injections consisting of 0.1% DMSO in 0.5% methylcellulose solution with either vehicle (no cuprizone and vehicle group; n=6 and n=8 respectively), 0.1 mg/kg RICE (n=7) or 0.3 mg/kg RICE (n=6) (FIG. 3). […] After either three or four days after ceasing the cuprizone diet, visual evoked potential were measured to evaluate optic tract and nerve signaling (groups equally divided over testing days). Epidermal VEP was recorded in response to flash stimulation (3 trains of 20 stimuli, 10 us duration, 1 Hz frequency) from both eyes. […] A one-way ANOVA with Kruskall Wallis multiple comparison test was conducted to evaluate statistical significances (*p≤0.05; **p<0.01, ****p<0.001).

## Oc1cc(-c2ccn(CC(O)CN3CCOCC3)n2)ccc1OC(F)F (stereo not shown) [RICE01]
[1]
  (re)myelination (myelination index / MBP expression): improved (re)myelination
[2]; 3-1000 nM, day 6
  MBP expression (oligodendrocyte marker): dose dependently increased
[2]; 3-1000 nM, treatment day 0, 2, 4, fixated day 6
  O4 expression (late OPC marker): increased with the lower concentrations
[2]; day 6
  concentration from which the increased expression of O4 declined: ≥ 100 nM
  concentration of maximal MBP expression: 30 nM
  concentration of maximal O4 expression increase: 10 nM
[2]
  OPC differentiation towards oligodendrocytes: induces OPC differentiation and myelin production
[2]; listed as RICE
  OPC differentiation towards oligodendrocytes: boosts OPC differentiation towards oligodendrocytes; also recorded: boosted OPC differentiation; also recorded: stimulated the differentiation of oligodendrocytes
[3]; 0.00003 mg/kg subcutaneous
  D2 value versus zero (one-sample t-test): significantly higher than zero
[3]; 0.0001 mg/kg subcutaneous
  D2 value versus zero (one-sample t-test): significantly higher than zero
  d2 index compared with vehicle treatment (Dunnett's): significantly higher d2 index
[3]; 0.0003 mg/kg subcutaneous
  D2 value versus zero (one-sample t-test): significantly higher than zero
[3]; 0.001 mg/kg subcutaneous
  D2 value versus zero (one-sample t-test): significantly higher than zero
[3]; 0.01 mg/kg subcutaneous
  D2 value versus zero (one-sample t-test): significantly higher than zero
[3]; 0.03 mg/kg subcutaneous
  D2 value versus zero (one-sample t-test): significantly higher than zero
[3]; 0.1 mg/kg subcutaneous
  D2 value versus zero (one-sample t-test): significantly higher than zero
  d2 index compared with vehicle treatment (Dunnett's): significantly higher d2 index
[3]; subcutaneous, 0.00003 mg/kg-0.3 mg/kg, 3h after first learning trial
  discrimination index (D2) in the object location task: increases
[4]
  visual evoked potential latency: decreased latency times
